Data on 4 compounds can be found in publication PMC11434354, “Metabolic and Pharmacokinetic Profiling Studies of N, N-Dimethylaniline-Heliamine in Rats by UHPLC-Q-Orbitrap MS/MS” (Molecules, 2024).

Each structure is given as a SMILES string.

A short description of this series: Metabolite identification of DH in rat plasma, urine, feces and rat liver microsomes by UHPLC-Q-Orbitrap MS/MS. Format: in vivo. Details: key: F*: feces; U*: urine; P*: plasma; LM*: Liver microsome. Particulars: rat plasma. As for the experimental part: For the analysis of DH metabolites, the same UHPLC-MS/MS system was used for the plasma analysis, and the ACQUIT UHPLC BEH C18 column was also utilized. Mobile phase A consisted of 0.1% formic acid in water (v/v), while mobile phase B comprised acetonitrile. The flow rate was maintained at 0.2 mL/min, with a 10 µL injection volume. The column temperature was kept constant at 35 °C, and the RS autosampler temperature was maintained at 10 °C. The gradient elution was as follows: 0–3 min(5%B), 3–11 min (7%B), 11–18 min (7%B), and 18–45 min (30%B). A full MS/dd MS^2 mode in positive heated electrospray ionization (HESI) with 140,000 (for MS) and 17,500 (for MS/MS) resolutions was used for the Q–Exactive Plus Orbitrap MS. The compounds identified in full MS/dd MS^2 mode will be scanned using PRM scanning. The following MS parameters were employed: AGC target, 1 × 10^6; Maximum IT, 100 ms; Spray voltage, 3.2 kV; Capillary temp, 320 °C; S-lens RF level, 55; HCD Energy 20, 40, and 60.
Rat liver microsomes were used for in vitro experiments to study DH metabolism in rats more quickly and easily. After that, the cofactors of phases I and II were added to create the phase I and phase II metabolic systems. The composition of the reagent kit and the procedure can be found in our previous work.
For the plasma study, 100 µL of plasma was obtained from rats at 0.5, 1, 2, and 4 h after medicine administration. Then, 300 µL of acetonitrile was added to the above plasma, vortexed for 1 min, and centrifuged for 7 min. The supernatant was collected, and the remaining liquid was dried using nitrogen gas at 40 °C. The blow-dried samples were re-dissolved in 100 µL methanol, sonicated for 1 min, and centrifuged for 7 min.
Urine was collected during the period spanning from 0 to 48 h following administration, with each period’s combined urine comprising 10 mL and 30 mL of acetonitrile added thereto. After a 10 min interval of sonication, the urine samples were transferred into 1.5 mL centrifuge tubes, vortexed for 1 min, and then centrifuged at a speed of 14,000 rpm for 10 min. Successively, the supernatant was merged and subjected to drying by nitrogen gas at 40 °C. The blow-dried samples were re-dissolved in 100 µL of methanol, sonicated for 1 min, and centrifuged for 7 min.
For the fecal study, feces were collected within 0–48 h following administration, dried to powder at room temperature in a shaded area, and combined to yield 8 mL per period, to which 40 mL of acetonitrile was added. Following 30 min of sonication, the samples were transferred to 1.5 mL centrifuge tubes and centrifuged at 14,000 rpm for 10 min. The supernatant was collected and dried with nitrogen at 40 °C before analysis via UHPLC-MS/MS. Before analysis, the blow-dried samples were re-dissolved in 100 µL of methanol, sonicated for 1 min, and centrifuged for 7 min.
Compound Discovery 3.3 was used for data processing. The MS spectrometric features mainly include retention time, exact mass, peak intensity, and fragment ions. The data processing mainly included selecting spectra, aligning retention times, creating pattern traces, creating fish traces, generating expected compounds, finding expected compounds, grouping expected compounds, fish scoring, and marking background compounds. The mass tolerance is less than 5 ppm.
Background: Liver microsomes are a subcellular fraction often used to study metabolism.
In the case of `CN(C)c1ccc(C2NCCc3cc(O)c(O)cc32)cc1` (stereo not shown) [M2–A], the “Rat and LM* (matrices in which DH or the metabolite was detected)” value was “U*, LM*”. In the case of `CNc1ccc(C2NCCc3cc(OC)c(OC)cc32)cc1` (stereo not shown) [M4–C] it was “P*, U*, LM*”. Then `COc1cc2c(cc1OC)C(c1ccc(N)cc1)NCC2` (stereo not shown) [M2–B], with “P*, U*, LM*”.

Regarding `CN(C)c1ccc(-c2nccc3cc(O)c(O)cc23)cc1` [M6–A], the “Rat and LM* (matrices in which DH or the metabolite was detected)” value is reported as “F*”.
